Consider 1 compound from patent publication US11452725B2, “Chiral diaryl macrocycles and uses thereof” (TURNING POINT THERAPEUTICS, INC., priority 2015, dated 2022).

Molecules are shown by their SMILES. Entries after “also recorded” stand apart in the source; their conditions may differ.

In experiment [1] the test system is Ba/F3 TPR-ALK L1196M cell line. As to the kind of experiment: Cell proliferation assay at Advanced Cellular Dynamics (CellTiter-Glo). Type of experiment: cell-based. To be noted: Mus musculus, BaF3, 48 hours. A general note: In ATP-based viability assays light output follows the ATP content of the culture.
Experiment [2] has as its system NIH3T3 EML4-ALK WT tumors. In words: NIH3T3 EML4-ALK WT subcutaneous xenograft model. It is filed as in vivo, athymic nude mice. The following applies: 12 days.
Experiment [3] concerns the target FAK (Homo sapiens, UniProt Q05397). As to the kind of experiment: Immunoblotting cellular kinase phosphorylation assay, NCI-H2228 cells. The following applies: 4 hours treatment; read-out: FAK phosphorylation of NCI-H2228 cell line IC50. It is filed as cell-based. The protocol: (§1) NSCLC cell line H2228 (harboring endogenous EML4-ALK fusion gene) was cultured in RPMI medium supplemented with 10% fetal bovine serum and 100 U/mL of penicillin/streptomycin. Ba/F3 and NIH3T3 cells stably expressing ROS1, or TRKA, or TRKB, or TRKC (WT or mutant) were cultured as mentioned above. […] Cells were collected after treatment and lysed in RIPA buffer (50 mM Tris, pH 7.4, 150 mM NaCl, 1% NP-40, 0.5% Deoxycholate, 0.1% SDS) supplemented with 10 mM EDTA, 1× Halt protease and phosphatase inhibitors (Thermo Scientific). Protein lysates (approximately 20 μg) was resolved on 4-12% Bolt Bis-Tris precasted gels with MES running buffer (Life Technologies), transferred to nitrocellulose membranes using Trans-Blot Turbo Transfer System (Bio-Rad) and detected with antibodies targeting phosphorylated phosphorylated ROS1 and total ROS1 (Cell Signaling Technology), phosphorylated TRK A/B (Cell Signaling Technology), total TRKA antibody (Santa Cruz Biotechnology), phosphorylated SRC Y416 (Cell Signaling Technology), total SRC (Cell Signaling Technology), phosphorylated FAK Y576/577 (Cell Signaling Technology), total FAK (Cell Signaling Technology), phosphorylated paxillin Y118 (Cell Signaling Technology), total paxillin (Cell Signaling Technology), phosphorylated EGFR and total EGFR, CD44, and Tubulin (Sigma). […]

In experiment [4] the test system is CD44. In words: CD44 expression by immunoblotting in H2228 cells. Type of experiment: cell-based, human. To be noted: 48 hours treatment, 0-1000 nM. On the procedure:
as §1

The target of experiment [5] is T1, FYN (Homo sapiens, UniProt P06241).
T1 construct: purchased Reaction Biology Corporation
As to the kind of experiment: Biochemical kinase assay (Reaction Biology). To be noted: 10 μM ATP.

The target in experiment [6] is T2, LTK (Homo sapiens, UniProt P29376).
T2 construct: purchased Reaction Biology Corporation (contract assay)
In words: Biochemical kinase assay (Reaction Biology). The following applies: 10 μM ATP.

Experiment [7] relates to Ba/F3 EML4-ALK wild type cell line. As to the kind of experiment: Cell proliferation assay (CellTiter-Glo). To be noted: Mus musculus, 72 hours. Type of experiment: cell-based.
The test system of experiment [8] is STAT5. As to the kind of experiment: Immunoblotting cellular phosphorylation assay, SET-2 cells (JAK2 V617F). It is filed as cell-based. To be noted: Homo sapiens, SET-2, 4 h, 4 hours treatment, read-out: STAT5 phosphorylation of SET-2 cell line IC50. On the procedure:
NSCLC cell line H2228 (harboring endogenous EML4-ALK fusion gene), HCC78 cells (harboring endogenous SLC34A2-ROS1 fusion gene), Karpas-299 cells (harboring endogenous NPM-ALK fusion gene) or SET-2 (harboring endogenous JAK2V617F activating mutation) were cultured in RPMI medium, and KM12 (harboring endogenous TPM3-TRKA fusion gene) cell line was cultured in DMEM medium, both supplemented with 10% fetal bovine serum and 100 U/mL of penicillin/streptomycin. Ba/F3 and NIH3T3 cells stably expressing ALK or ROS1 (WT or mutant) were culture as mentioned above. […] Protein lysates (approximately 20 μg) was resolved on 4-12% Bolt Bis-Tris precasted gels with MES running buffer (Life Technologies), transferred to nitrocellulose membranes using Trans-Blot Turbo Transfer System (Bio-Rad) and detected with antibodies targeting phosphorylated ALK Y1604 (Cell Signaling Technology), total ALK (Cell Signaling Technology), phosphorylated ROS1 and total ROS1 (Cell Signaling Technology), phosphorylated TRK A/B (Cell Signaling Technology), total TRKA antibody (Santa Cruz Biotechnology), phosphorylated STAT3 and STAT5, total STAT3 and STAT5 (Cell Signaling Technology), phosphorylated AKT (Cell Signaling Technology), total AKT (Cell Signaling Technology), phosphorylated ERK (Cell Signaling Technology), total ERK (Cell Signaling Technology) and Tubulin (Sigma). […]
A general note: Immunoblotting shows a protein as a band on a membrane.

The subject of experiment [9] is Ba/F3 CD74-ROS1 G2032R cell line. In words: Cell proliferation assay (CellTiter-Glo). To be noted: Mus musculus, BaF3; 72 hours. It is filed as cell-based.
Experiment [10] deals with Ba/F3 CD74-ROS1 L2026M cell line. As to the kind of experiment: Cell proliferation assay (CellTiter-Glo). The following applies: Mus musculus, BaF3, 72 h, read-out: Cell proliferation of Ba/F3 CD74-ROS1 L2026M cell line IC50. Type of experiment: cell-based.
The subject of experiment [11] is KM12 tumors. In words: KM12 colorectal cancer subcutaneous xenograft model. It is filed as in vivo, athymic nude mice. To be noted: seven days.
Experiment [12] concerns SET-2 cell line. In words: Cell proliferation assay (CellTiter-Glo). It is filed as cell-based. To be noted: Homo sapiens, 72 hours, JAK2 V617F mutation.
In experiment [13] the target is T3, JAK1 (Homo sapiens, UniProt P23458).
T3 construct: purchased Reaction Biology Corporation (contract assay)
In words: Biochemical kinase assay (Reaction Biology). To be noted: 10 μM ATP.

The mark [14] stands for this setting: Example 13: 15 mg/kg BID orally.
[15] abbreviates: Example 13: 75 mg/kg BID orally.

T1 sequence (P06241 whole entry): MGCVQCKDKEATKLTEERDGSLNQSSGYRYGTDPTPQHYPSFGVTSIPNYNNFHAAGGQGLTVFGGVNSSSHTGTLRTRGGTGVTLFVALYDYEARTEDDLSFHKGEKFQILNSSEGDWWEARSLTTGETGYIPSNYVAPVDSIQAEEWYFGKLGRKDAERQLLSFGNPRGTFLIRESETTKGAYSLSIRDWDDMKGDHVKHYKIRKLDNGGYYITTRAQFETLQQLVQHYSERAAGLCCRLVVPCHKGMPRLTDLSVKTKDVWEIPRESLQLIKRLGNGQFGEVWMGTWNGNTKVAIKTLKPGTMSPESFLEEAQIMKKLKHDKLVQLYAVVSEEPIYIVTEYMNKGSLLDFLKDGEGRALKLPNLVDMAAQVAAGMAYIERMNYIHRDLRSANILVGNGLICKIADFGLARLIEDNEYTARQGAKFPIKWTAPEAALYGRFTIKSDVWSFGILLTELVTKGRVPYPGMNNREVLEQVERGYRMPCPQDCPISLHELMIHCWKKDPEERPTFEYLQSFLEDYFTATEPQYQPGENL
T3 sequence (P23458 whole entry): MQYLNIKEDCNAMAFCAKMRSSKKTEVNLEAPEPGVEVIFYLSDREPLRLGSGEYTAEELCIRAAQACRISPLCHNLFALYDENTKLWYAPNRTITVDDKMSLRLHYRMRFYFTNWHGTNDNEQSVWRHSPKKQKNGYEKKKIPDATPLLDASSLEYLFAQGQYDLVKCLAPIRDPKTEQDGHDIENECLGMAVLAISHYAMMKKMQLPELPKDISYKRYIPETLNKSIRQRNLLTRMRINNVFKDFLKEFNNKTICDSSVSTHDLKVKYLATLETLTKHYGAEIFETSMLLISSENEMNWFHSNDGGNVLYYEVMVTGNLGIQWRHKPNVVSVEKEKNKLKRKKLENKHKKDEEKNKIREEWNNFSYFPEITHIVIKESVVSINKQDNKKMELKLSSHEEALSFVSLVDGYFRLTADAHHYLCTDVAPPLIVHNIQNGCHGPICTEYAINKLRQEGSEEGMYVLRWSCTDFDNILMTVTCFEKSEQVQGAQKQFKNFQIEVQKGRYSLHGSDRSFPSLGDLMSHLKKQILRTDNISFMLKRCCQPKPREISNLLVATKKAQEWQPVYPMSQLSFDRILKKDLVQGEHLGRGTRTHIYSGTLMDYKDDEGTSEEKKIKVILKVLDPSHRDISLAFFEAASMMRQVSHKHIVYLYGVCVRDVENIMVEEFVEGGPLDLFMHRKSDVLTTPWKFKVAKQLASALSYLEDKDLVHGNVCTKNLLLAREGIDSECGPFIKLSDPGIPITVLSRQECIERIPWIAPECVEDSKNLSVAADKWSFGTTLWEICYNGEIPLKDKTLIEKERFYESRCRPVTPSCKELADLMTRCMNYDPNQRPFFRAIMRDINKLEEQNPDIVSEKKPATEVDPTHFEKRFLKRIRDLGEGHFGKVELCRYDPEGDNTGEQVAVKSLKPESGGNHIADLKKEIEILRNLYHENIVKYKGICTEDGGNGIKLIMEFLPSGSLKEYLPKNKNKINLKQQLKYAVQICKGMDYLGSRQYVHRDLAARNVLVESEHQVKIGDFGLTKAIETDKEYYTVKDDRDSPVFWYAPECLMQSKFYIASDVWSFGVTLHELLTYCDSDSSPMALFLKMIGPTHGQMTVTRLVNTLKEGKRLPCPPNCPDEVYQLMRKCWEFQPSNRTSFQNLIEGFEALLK
T2 sequence (P29376 17-864): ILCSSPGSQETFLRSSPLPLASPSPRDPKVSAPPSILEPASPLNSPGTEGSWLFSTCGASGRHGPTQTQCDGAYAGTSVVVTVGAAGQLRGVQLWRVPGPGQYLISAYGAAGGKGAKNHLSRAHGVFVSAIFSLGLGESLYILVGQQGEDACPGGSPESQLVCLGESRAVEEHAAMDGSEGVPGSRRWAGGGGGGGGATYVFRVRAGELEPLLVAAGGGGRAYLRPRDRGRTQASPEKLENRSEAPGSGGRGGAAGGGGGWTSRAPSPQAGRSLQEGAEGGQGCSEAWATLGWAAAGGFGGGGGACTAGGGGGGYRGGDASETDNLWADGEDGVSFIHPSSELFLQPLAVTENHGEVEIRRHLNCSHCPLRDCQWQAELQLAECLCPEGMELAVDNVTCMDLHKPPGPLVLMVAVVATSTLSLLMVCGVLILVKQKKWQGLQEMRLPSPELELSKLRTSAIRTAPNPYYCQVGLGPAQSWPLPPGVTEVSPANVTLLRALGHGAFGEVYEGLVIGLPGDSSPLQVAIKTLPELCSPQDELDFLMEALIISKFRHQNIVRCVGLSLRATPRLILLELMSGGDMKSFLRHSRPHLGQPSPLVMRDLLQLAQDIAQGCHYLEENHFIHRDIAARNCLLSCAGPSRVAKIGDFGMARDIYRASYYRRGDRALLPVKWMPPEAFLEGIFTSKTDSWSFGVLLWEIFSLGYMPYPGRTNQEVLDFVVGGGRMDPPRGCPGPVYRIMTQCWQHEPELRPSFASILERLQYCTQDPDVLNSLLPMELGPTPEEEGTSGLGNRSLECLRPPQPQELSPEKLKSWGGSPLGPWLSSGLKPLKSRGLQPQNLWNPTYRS

On to `C[C@H]1CNC(=O)c2cnn3ccc(nc23)N[C@H](C)c2cc(F)ccc2O1` [Compound 1, (7S,13R)-11-fluoro-7,13-dimethyl-6,7,13,14-tetrahydro-1,15-ethenopyrazolo[4,3-f][1,4,8,10]benzoxatriazacyclotridecin-4(5H)-one], for which the IC50 in experiment [1] is 13.4 nM; in experiment [3], […]; in experiment [5], 1.05 nM; in experiment [6], 21.8 nM; in experiment [7], 17.8 nM; in [8] it was around 158 nM. The IC50 was found to be […] in experiment [9], […] in experiment [10], 169 nM in [12] and 19 nM in experiment [13]. Besides, the “mice exhibiting tumor regression” value in experiment [2] (15 mg/kg/BID orally) is reported as […]; in experiment [2] (50 mg/kg/BID orally), […]; in experiment [11] (setting [14]), […]; in experiment [11] (setting [15]), […]; in [11] (Example 15: 3 mg/kg BID orally), […]; in experiment [11] (Example 15: 15 mg/kg BID orally), […]. Moreover, the “tumor regression (REG)” value in [2] (50 mg/kg/BID orally) is reported as 41%; in experiment [11] (setting [14]), 13%; in [11] (setting [15]) it was 11%; in experiment [11] (Example 15 dose dependent study: 15 mg/kg BID orally) it was […]. Moreover, the CD44 expression level entry in experiment [4] was “down-regulates CD44 expression; also recorded: suppressed CD44 expression level in H2228 cells in a concentration-dependent manner”. In addition, the “Tumor growth inhibition (TGI)” value in experiment [11] (Example 15: 1 mg/kg BID orally) is 77%.
